According to patent publication US20070027175A1, “Antineoplastic activities of ellipticine and its derivatives” (priority 2005, published 2007):

Tested on: myeloma cell lines (JJN3, L363, OCI-MY5, and U266)
Test: MTT comparison with clinical anti-myeloma agents, four cell lines
Assay type: cell-based, human
Conditions: 24 and 48 hours
Protocol: Myeloma cells were suspended in fresh medium at […] and seeded into 96-well plates in 50-μl aliquots (10,000 cells/well). After treating cells in each well with the appropriate compound (50-μl aliquots of 2× stock solution) and medium control, the methylthiazolyldiphenyl-tetrazolium bromide (MTT) assay kit (Promega, Madison, Wis.) was used to determine cell proliferation, according to manufacturer's instructions. Briefly, dye solution was added to each well (15 μl/well) and incubated for 4 hours at 37° C. and 5% CO2; 100 μl of the solubilization solution/stop mix was then added. The plates were read at 570 nm in a plate reader, and the A570 nm values were corrected by A650 nm. All experiments were conducted in triplicate.
In vitro comparison of EPED3 to ellipticine and four anti-myeloma agents commonly used in clinical treatment regimens was carried out with four myeloma cell lines (JJN3, L363, OCI-MY5, and U266). EPED3, ellipticine, Dox, dexamethasome, VP-16-213, and Velcade were applied in a two-fold dilution series ranging from 0.1 to 6.4 μM. Cell proliferation was assessed using MTT assays 24 and 48 hours after initiating treatments.

Cc1c2ccncc2c(C)c2c1[nH]c1ccc(OCCN(C)C)cc12 [NSC 338258, ellipticine, 9-dimethyl amino-ethoxy-]
concentration at which cell viability is inhibited as effectively as Velcade: 0.4 µM
